Source: ChEMBL document CHEMBL1201862, “PubChem BioAssay data set” (2004)
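How tested: cells in 96-well plates exposed to compound for 48 hours at five concentrations. The concentration for 50% growth inhibition is given as GI50.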 Activity calls are given as the source filed them. Rule as the data show it: active = GI50 up to about 1.1 µM and inactive = higher.

Experiments:
Assay in all cases: growth of human tumour cells (NCI), 48 h
HCT-116 = tested on: HCT-116
NCI-H23 = tested on: NCI-H23
Malme-3M = tested on: Malme-3M
SN12C = tested on: SN12C
SK-MEL-5 = tested on: SK-MEL-5
SK-MEL-2 = tested on: SK-MEL-2
SK-OV-3 = tested on: SK-OV-3
DU-145 = tested on: DU-145
786-0 = tested on: 786-0
HL-60 = tested on: HL-60
ACHN = tested on: ACHN
UACC-257 = tested on: UACC-257
SNB-19 = tested on: SNB-19
MCF7 = tested on: MCF7
CAKI-1 = tested on: CAKI-1
SR = tested on: SR
OVCAR-4 = tested on: OVCAR-4
SF-539 = tested on: SF-539
HT-29 = tested on: HT-29
T47D = tested on: T47D
NCI/ADR-RES = tested on: NCI/ADR-RES
UACC-62 = tested on: UACC-62
NCI-H460 = tested on: NCI-H460
IGROV-1 = tested on: IGROV-1
HOP-62 = tested on: HOP-62
K562 = tested on: K562
KM12 = tested on: KM12
A549 = tested on: A549
U-251 = tested on: U-251
NCI-H522 = tested on: NCI-H522
SNB-75 = tested on: SNB-75
Hs-578T = tested on: Hs-578T
MDA-N = tested on: MDA-N
CCRF-CEM = tested on: CCRF-CEM
SF-295 = tested on: SF-295
MDA-MB-435 = tested on: MDA-MB-435
SW-620 = tested on: SW-620
BT-549 = tested on: BT-549
LOX IMVI = tested on: LOX IMVI
RPMI-8226 = tested on: RPMI-8226
OVCAR-5 = tested on: OVCAR-5
OVCAR-3 = tested on: OVCAR-3
SF-268 = tested on: SF-268
UO-31 = tested on: UO-31
SK-MEL-28 = tested on: SK-MEL-28
PC-3 = tested on: PC-3
RXF 393 = tested on: RXF 393
M14 = tested on: M14
A498 = tested on: A498
MOLT-4 = tested on: MOLT-4
OVCAR-8 = tested on: OVCAR-8
COLO 205 = tested on: COLO 205
HCT-15 = tested on: HCT-15
MDA-MB-231 = tested on: MDA-MB-231
EKVX = tested on: EKVX

COc1nc(C#CC2(O)CCCCC2)nc(OC)n1
GI50 (HCT-116): 9.4 µM (inactive)
GI50 (NCI-H23): 13.7 µM (inactive)
GI50 (Malme-3M): 3.1 µM (inactive)
GI50 (SN12C): 12.4 µM (inactive)
GI50 (SK-MEL-5): 7.43 µM (inactive)
GI50 (SK-MEL-2): 14 µM (inactive)
GI50 (SK-OV-3): 53.6 µM (inactive)
GI50 (DU-145): 6.79 µM (inactive)
GI50 (786-0): 22.9 µM (inactive)
GI50 (HL-60): 2.64 µM (inactive)
GI50 (ACHN): 8.49 µM (inactive)
GI50 (UACC-257): 14.6 µM (inactive)
GI50 (SNB-19): 38.7 µM (inactive)
GI50 (MCF7): 4.28 µM (inactive)
GI50 (CAKI-1): 4.19 µM (inactive)
GI50 (SR): 3.47 µM (inactive)
GI50 (OVCAR-4): 1.87 µM (inactive)
GI50 (SF-539): 9.16 µM (inactive)
GI50 (HT-29): 11.7 µM (inactive)
GI50 (T47D): 30.5 µM (inactive)
GI50 (NCI/ADR-RES): 23.6 µM (inactive)
GI50 (UACC-62): 6.55 µM (inactive)
GI50 (NCI-H460): 24.3 µM (inactive)
GI50 (IGROV-1): 11.1 µM (inactive)
GI50 (HOP-62): 34.2 µM (inactive)
GI50 (K562): 6.49 µM (inactive)
GI50 (KM12): 15.8 µM (inactive)
GI50 (A549): 13.9 µM (inactive)
GI50 (U-251): 12.4 µM (inactive)
GI50 (NCI-H522): 10 µM (inactive)
GI50 (SNB-75): 19.4 µM (inactive)
GI50 (Hs-578T): 11.5 µM (inactive)
GI50 (MDA-N): 10.9 µM (inactive)
GI50 (CCRF-CEM): 12.3 µM (inactive)
GI50 (SF-295): 18 µM (inactive)
GI50 (MDA-MB-435): 5.82 µM (inactive)
GI50 (SW-620): 8.91 µM (inactive)
GI50 (BT-549): 14.5 µM (inactive)
GI50 (LOX IMVI): 2.83 µM (inactive)
GI50 (RPMI-8226): 2.88 µM (inactive)
GI50 (OVCAR-5): 12.7 µM (inactive)
GI50 (OVCAR-3): 8.15 µM (inactive)
GI50 (SF-268): 14.3 µM (inactive)
GI50 (UO-31): 3.82 µM (inactive)
GI50 (SK-MEL-28): 13.9 µM (inactive)
GI50 (PC-3): 5.62 µM (inactive)
GI50 (RXF 393): 12.9 µM (inactive)
GI50 (M14): 8.65 µM (inactive)
GI50 (A498): 17.3 µM (inactive)
GI50 (MOLT-4): 3.53 µM (inactive)
GI50 (OVCAR-8): 13 µM (inactive)
GI50 (COLO 205): 14.7 µM (inactive)
GI50 (HCT-15): 2.69 µM
GI50 (MDA-MB-231): 3.34 µM (inactive)
GI50 (EKVX): 18.1 µM (inactive)
